Experimental findings from patent publication US20080312209A1, “Piperazine Heteroaryl Derivatives as Gpr38 Agonists” (Glaxo Group Limited, priority 2005, published 2008) are described below.

A value given as a limit tells only on which side of the number the result lay.

The target in assay [1] is T1, hGPR38R (Homo sapiens, UniProt O43193). Briefly: GPR38 FLIPR functional agonist assay. On the set-up: expressed in transfected cells. The conditions noted are these: HEK-293 cells stably expressing the GPR38 receptor, agonist response, Fluo-4 fluorescence. The format is cell-based. The method, then:
The potencies and efficacies of the compounds of this invention for GPR^38 can be determined by FLIPR assay performed on the human cloned receptor as described herein. It has been found, using the FLIPR functional assay, that compounds of formula (I) appear to be partial or full agonists of the GPR38 receptor.
GPR38FLIPR Functional Agonist Assay Protocol
HEK-293 cells stably expressing the GPR38 receptor were seeded (10,000 cells/well) into poly-D-lysine coated 384-well black-wall, clear-bottom microtitre plates (Becton Dickinson) 24 h prior to assay. On day of assay, cells were washed (×2) with 80 ul of assay buffer (Hanks Balanced Salts Solution (HBSS), 10 mM HEPES, 200 μM Ca^2+, 2.5 mM probenecid) using the EMBLA cell washer. After the final wash, buffer was aspirated to leave a residual volume of 30 ul on the cells. Cells were loaded with 1 μM (final) Fluo-4-AM fluorescent indicator dye (TefLabs) in assay buffer, (20 ul loading solution added to each well using the Multidrop). Plates were incubated for 1 h at 37° C., before being washed (×3) with 80 ul assay buffer using the EMBLA cell washer; 30 ul residual being left after the final wash. Plates were then assayed on a Fluorometric Imaging Plate Reader (FLIPR, Molecular Devices). Test compounds were prepared in assay buffer without probenecid, but containing 0.03% CHAPS. In the FLIPR, 10 ul of test compound was added to the cells and changes in fluorescence measured over a 2 min timeframe. Maximum change in fluorescence over baseline was used to determine agonist response and concentration response curves were constructed, using a 4-parameter logistic equation.
(§1) The following alternative procedure may also be used:
HEK-293 cells stably expressing the GPR38 receptor were seeded (30,000 cells/100 ul growth media/well) into poly-D-lysine coated 96-well black-wall, clear-bottom microtitre plates (Corning) 24 hours prior to assay. On the day of assay the cells were loaded with 2 μM (final) Fluo-4-AM fluorescent indicator dye (Molecular Probes) and 1 mM (final) probenicid in assay buffer (145 mM sodium chloride, 2.5 mM potassium chloride, 10 mM Hepes, 10 mM glucose, 1.2 mM magnesium chloride, 1.5 mM calcium chloride and 0.1% BSA) (50 ul loading solution added to each well). Plates were incubated for 1 hour at 25° C., before being washed 4 times with 100 ul assay buffer using the EMBLA cell washer; 150 ul residual being left after the final wash. The cells were then incubated at 25° C. for 20 minutes and the plates were then assayed on a Fluorometric Imaging Plate Reader (FLIPR, Molecular Devices). Test compounds were prepared in assay buffer without probenecid. In the FLIPR, 50 ul of test compound was added to the cells and changes in fluorescence measured over a 2 minute timeframe. Maximum change in fluorescence over baseline was used to determine agonist response and concentration response curves were constructed, using a 4-parameter logistic equation.
Target sequence in this assay (O43193 whole entry): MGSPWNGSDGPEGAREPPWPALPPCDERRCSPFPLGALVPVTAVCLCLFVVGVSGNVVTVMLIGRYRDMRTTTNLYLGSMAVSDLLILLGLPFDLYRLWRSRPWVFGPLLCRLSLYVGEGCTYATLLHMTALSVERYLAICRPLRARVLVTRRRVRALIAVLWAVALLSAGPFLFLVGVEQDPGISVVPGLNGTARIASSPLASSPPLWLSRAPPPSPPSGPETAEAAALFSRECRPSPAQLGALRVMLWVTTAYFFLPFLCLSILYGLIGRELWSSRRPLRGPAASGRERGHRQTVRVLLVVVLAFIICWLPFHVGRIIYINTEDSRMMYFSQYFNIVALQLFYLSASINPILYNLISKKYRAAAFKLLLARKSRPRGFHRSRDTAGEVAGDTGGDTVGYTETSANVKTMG

Assay [2] has as its target T1, hGPR38R. Description: GPR38 GTPγS functional agonist assay. The format is biochemical. Also on record: expressed in transfected cells; host or cells: HEK293 (transient transfection; P2 membrane fractions). The method, then:
The potencies and intrinsic activities of the compounds of this invention can also be determined according to the [35S]GTPγS functional assay which is described herein. It has been found, using the [35S]GTPγS functional assay, that compounds of formula (I) appear to be partial or full agonists of the GPR38 receptor.
GPR38GTPγS Functional Agonist Assay Protocol
For each compound being assayed, in an Opti clear bottom 96 well plate, is added:—
(a) 20 μl of test compound (or 10 μl of guanosine 5′-triphosphate (GTP) as non-specific binding control) diluted to required concentration in assay buffer (20 mM N-2-Hydroxyethylpiperazine-N′-2-ethanesulfonic acid (HEPES)+100 mM NaCl+10 mM MgCl2, pH adjusted to 7.4 with NaOH); (b) 60 μl bead/membrane/GDP mix prepared by suspending wheat germ agglutinin-polyvinyltoluene (WGA-PVT) scintillation proximity assay (SPA) beads at 100 mg/ml in assay buffer followed by mixing with membrane (prepared in accordance with the methodology described above) and diluting in assay buffer to give a final volume of 60 μl which contains 10 μg protein and 0.5 mg bead per well—mixture is pre-mixed at 4° C. for 30 min on a roller and just prior to addition to the plate, 10 μM final concentration of guanosine 5′ diphosphate (GDP—diluted in assay buffer) is added; (c) 20 μl guanosine 5′ [γ35-S]thiotriphosphate, triethylamine salt (Amersham; radioactivity concentration=37 kBq/μl or 1 mCi/ml; Specific Activity 1160 Ci/mmol) diluted to 1.9 nM in assay buffer to give 0.38 nM final.
The plate is incubated on a shaker at 25° C. for 30 min followed by centrifugation for 5 min at 1500 rpm. The plate is read between 3 and 6 h after completion of centrifuge run in a Wallac Microbeta counter on a 1 min normalised tritium count protocol. Data is analysed using a 4-parameter logistic equation. Basal activity used as minimum.
as §1
Target sequence in this assay (O43193 whole entry): as above
Target sequence in this assay (P09471 2-354 partner limits assumed): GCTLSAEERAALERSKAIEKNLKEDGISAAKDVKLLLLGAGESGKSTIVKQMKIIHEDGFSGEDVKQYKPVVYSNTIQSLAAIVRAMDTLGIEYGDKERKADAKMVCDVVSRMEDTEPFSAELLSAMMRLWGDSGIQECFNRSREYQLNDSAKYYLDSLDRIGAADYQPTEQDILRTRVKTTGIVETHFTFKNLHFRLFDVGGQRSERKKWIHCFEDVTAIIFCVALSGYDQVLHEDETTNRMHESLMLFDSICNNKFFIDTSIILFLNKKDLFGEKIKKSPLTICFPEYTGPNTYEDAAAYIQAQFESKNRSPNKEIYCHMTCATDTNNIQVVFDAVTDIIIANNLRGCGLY
Target sequence in this assay (P62873 2-340 partner limits assumed): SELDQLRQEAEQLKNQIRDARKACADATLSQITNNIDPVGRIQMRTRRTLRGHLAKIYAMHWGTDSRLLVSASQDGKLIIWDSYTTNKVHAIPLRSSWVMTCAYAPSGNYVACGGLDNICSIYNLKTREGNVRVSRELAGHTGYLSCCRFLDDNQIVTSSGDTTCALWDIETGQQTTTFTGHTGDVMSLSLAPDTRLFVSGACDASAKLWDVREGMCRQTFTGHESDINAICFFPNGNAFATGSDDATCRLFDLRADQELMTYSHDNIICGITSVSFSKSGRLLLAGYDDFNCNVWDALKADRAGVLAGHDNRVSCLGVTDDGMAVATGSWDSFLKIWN
Target sequence in this assay (P59768 2-68 partner limits assumed): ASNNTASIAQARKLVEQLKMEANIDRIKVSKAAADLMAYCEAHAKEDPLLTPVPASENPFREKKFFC
Membranes are derived from bulk cell cultures of HEK293 cell lines transiently transfected with hGPR38R and Go G-protein. P2 membranes fractions are prepared, aliquoted and stored at −80° C.
For each compound being assayed, the following is added into a white Greiner 384 well plate:—
(a) 1 μl of test compound diluted to required concentration in DMSO. (b) 20 μl bead/membrane/Saponin/GDP mix prepared as follows;—suspension of LEADseeker wheat germ agglutinin (WGA) scintillation proximity assay (SPA) beads at 25 mg/ml in assay buffer (20 mM N-2-Hydroxyethylpiperazine-N′-2-ethanesulfonic acid (HEPES)+100 mM NaCl+10 mM MgCl2, pH adjusted to 7.4 with KOH) containing saponin at 150 ug/ml. Mixing of bead suspension with membranes at 500 ug/ml (prepared in accordance with the methodology described above) and diluting in assay buffer to give a final volume of 20 μl which contains 5 μg protein and 0.25 mg bead per well.
Mixture is pre-mixed for 30 minutes on a roller and just prior to addition to the plate, 3 μM final assay concentration of guanosine 5′ diphosphate (GDP) (diluted in assay buffer) is added.
(c) 25 μl guanosine 5′ [γ35-S]thiotriphosphate, triethylamine salt (Amersham; radioactivity concentration=37 kBq/μl or 1 mCi/ml; Specific Activity 1160 Ci/mmol) diluted to 0.6 nM in assay buffer to give 0.33 nM final assay concentration.
The plate is then spun for 2 minutes at 1500 rpm and then incubated at room temperature for 4 hours. The plate is then read on a Viewlux Plux (Perkin Elmer). Data is analysed using a 4-parameter logistic equation.

The mark [3] stands for this setting: read-out: pEC50 in the FLIPR assay (converted).
[4] abbreviates: [35S]GTPγS SPA, HEK293 membranes with hGPR38R and Go G-protein, read-out: pEC50 in the GTPγS assay (converted).

In the case of `C[C@@H]1CN(Cc2ccc(-n3ccnc3C(=O)N3CCC(Nc4cccc(F)c4)CC3)cc2)C[C@H](C)N1` [Example 21, 1-{[1-(4-{[(3R,5S)-3,5-Dimethyl-1-piperazinyl]methyl}phenyl)-1H-imidazol-2-yl]carbonyl}-N-(3-fluorophenyl)-4-piperidinamine], the EC50 on hGPR38R [1] (pEC50 in the FLIPR assay) is under 0.316 µM; at hGPR38R [2], under 3.16 µM.
On to `C[C@@H]1CN(Cc2ccc(-c3cccnc3C(=O)N3CCC(Nc4ccc(F)c(F)c4)CC3)cc2F)C[C@H](C)N1` [Example 12, N-(3,4-difluorophenyl)-1-{[3-(4-{[(3R,5S)-3,5-dimethyl-1-piperazinyl]methyl}-3-fluorophenyl)-2-pyridinyl]carbonyl}-4-piperidinamine], for which the EC50 is under 0.316 µM at hGPR38R [1] (pEC50 in the FLIPR assay) and under 3.16 µM on hGPR38R [2].
Regarding `C[C@@H]1CN(Cc2ccc(-c3cccnc3C(=O)N3CCC(Nc4ccccc4F)CC3)cc2)C[C@H](C)N1` [Example 31, 1-{[3-(4-{[(3R,5S)-3,5-dimethyl-1-piperazinyl]methyl}phenyl)-2-pyridinyl]carbonyl}-N-(2-fluorophenyl)-4-piperidinamine], the EC50 at hGPR38R [1] (pEC50 in the FLIPR assay) was under 1 µM; on hGPR38R [2] it was under 3.16 µM.
Regarding `C[C@@H]1CN(Cc2ccc(-c3cccnc3C(=O)N3CCC(Oc4cccc(F)c4)CC3)cc2)C[C@H](C)N1` [Example 34, (3R,5S)-1-({4-[2-({4-[(3-fluorophenyl)oxy]-1-piperidinyl}carbonyl)-3-pyridinyl]phenyl}methyl)-3,5-dimethylpiperazine], the EC50 at hGPR38R [1] (setting [3]) is under 0.316 µM; at hGPR38R [2] (setting [4]), under 3.16 µM.
`C[C@@H]1CN(Cc2ccc(-c3cccnc3CN(C)C(=O)CCc3ccc(F)cc3)cc2)C[C@H](C)N1` [Example 3, N-{[3-(4{[(3R,5S)-3,5-Dimethyl-1-piperazinyl]methyl}phenyl)-2-pyridinyl]methyl}-3-(4-fluorophenyl)-N-methylpropanamide]: the EC50 is under 0.316 µM at hGPR38R [1] (setting [3]) and under 3.16 µM on hGPR38R [2] (setting [4]).
`C[C@@H]1CN(Cc2ccc(-c3cccnc3C(=O)N3CCC(Nc4cccc(F)c4)CC3)cc2)C[C@H](C)N1` [Example 10, 1-{[3-(4-{[(3R,5S)-3,5-dimethyl-1-piperazinyl]methyl}phenyl)-2-pyridinyl]carbonyl}-N-(3-fluorophenyl)-4-piperidinamine]: the figures for the EC50 at hGPR38R [1] (pEC50 in the FLIPR assay) and at hGPR38R [2] were under 0.316 µM and under 3.16 µM, respectively.
Consider `C[C@@H]1CN(Cc2ccc(-c3cccnc3C(=O)N3CCC(Sc4ccc(Cl)cc4)CC3)cc2F)C[C@H](C)N1` [Example 13, (3R,5S)-1-({4-[2-({4-[(4-chlorophenyl)thio]-1-piperidinyl}carbonyl)-3-pyridinyl]-2-fluorophenyl}methyl)-3,5-dimethylpiperazine], for which the EC50 was under 0.316 µM at hGPR38R [1] (setting [3]) and under 3.16 µM on hGPR38R [2] (setting [4]).
As to `COc1cc(-c2cccnc2C(=O)N2CCC(Nc3ccc(F)cc3)CC2)ccc1CN1C[C@@H](C)N[C@@H](C)C1` [Example 17], the EC50 on hGPR38R [1] (pEC50 in the FLIPR assay) is under 0.316 µM; on hGPR38R [2], under 3.16 µM.
As for `C[C@@H]1CN(Cc2ccc(-c3cccnc3C(=O)N3CCC(Nc4ccc(F)c(F)c4)CC3)cc2)C[C@H](C)N1` [Example 15, N-(3,4-difluorophenyl)-1-{[3-(4-{[(3R,5S)-3,5-dimethyl-1-piperazinyl]methyl}phenyl)-2-pyridinyl]carbonyl}-4-piperidinamine], the EC50 is under 0.316 µM at hGPR38R [1] (pEC50 in the FLIPR assay) and under 3.16 µM at hGPR38R [2].
As for `C[C@@H]1CN(Cc2ccc(-c3cccnc3C(=O)N3CCC(Nc4cccc(F)c4)C3)cc2)C[C@H](C)N1` (stereo partly drawn) [Example 33, 1-{[3-(4-{[(3R,5S)-3,5-dimethyl-1-piperazinyl]methyl}phenyl)-2-pyridinyl]carbonyl}-N-(3-fluorophenyl)-3-pyrrolidinamine], the EC50 on hGPR38R [1] (setting [3]) is under 0.316 µM; at hGPR38R [2] (setting [4]), under 3.16 µM.
Consider `C[C@@H]1CN(Cc2ccc(-c3cccnc3S(=O)(=O)N3CCC(Nc4ccccc4F)CC3)cc2F)C[C@H](C)N1` [Example 20, 1-{[3-(4-{[(3R,5S)-3,5-Dimethyl-1-piperazinyl]methyl}-3-fluorophenyl)-2-pyridinyl]sulfonyl}-N-(2-fluorophenyl)-4-piperidinamine], for which the EC50 at hGPR38R [1] (setting [3]) is under 1 µM; on hGPR38R [2] (setting [4]), under 3.16 µM.
Turning to `C[C@@H]1CN(Cc2ccc(-c3cccnc3C(=O)N3CCC(Nc4ccc(F)cc4)C3)cc2)C[C@H](C)N1` (stereo partly drawn) [Example 16, 1-{[3-(4-{[(3R,5S)-3,5-dimethyl-1-piperazinyl]methyl}phenyl)-2-pyridinyl]carbonyl}-N-(4-fluorophenyl)-3-pyrrolidinamine], the figures for the EC50 on hGPR38R [1] (setting [3]) and on hGPR38R [2] (setting [4]) were under 0.316 µM and under 3.16 µM, respectively.
Consider `C[C@@H]1CN(Cc2ccc(-c3cccnc3C(=O)N3CCC(Nc4ccc(F)cc4)CC3)cc2)C[C@H](C)N1` [Example 2, (3R,5S)-3,5-Dimethyl-1-({4-[2-({4-[(4-fluorophenyl)amino]piperidin-1-yl}carbonyl)pyridin-3-yl]phenyl}methyl)piperazine], for which the figures for the EC50 at hGPR38R [1] (pEC50 in the FLIPR assay) and at hGPR38R [2] were under 0.316 µM and under 3.16 µM, respectively.
Taken in the same sequence, the figures for `C[C@@H]1CN(Cc2ccc(-c3cccnc3C(=O)N3CCC(Nc4cccc(F)c4)CC3)cc2F)C[C@H](C)N1` [Example 11, 1-{[3-(4-{[(3R,5S)-3,5-dimethyl-1-piperazinyl]methyl}-3-fluorophenyl)-2-pyridinyl]carbonyl}-N-(3-fluorophenyl)-4-piperidinamine] were under 0.316 µM and under 3.16 µM.
